The results in this text go back to patent EP0652009A1, “Identification and use of protease inhibitors” (ELI LILLY AND COMPANY, priority 1993, dated 1995).

Cathepsin D, sequence (P07339 169-412 limits assumed): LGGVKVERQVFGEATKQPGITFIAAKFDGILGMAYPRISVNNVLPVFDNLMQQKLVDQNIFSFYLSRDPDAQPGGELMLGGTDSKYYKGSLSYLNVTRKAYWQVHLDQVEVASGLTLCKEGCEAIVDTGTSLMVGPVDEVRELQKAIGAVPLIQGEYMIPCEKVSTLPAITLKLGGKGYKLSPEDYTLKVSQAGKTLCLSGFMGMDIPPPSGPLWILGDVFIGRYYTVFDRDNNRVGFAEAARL
Cathepsin D, sequence (P07339 65-162 limits assumed): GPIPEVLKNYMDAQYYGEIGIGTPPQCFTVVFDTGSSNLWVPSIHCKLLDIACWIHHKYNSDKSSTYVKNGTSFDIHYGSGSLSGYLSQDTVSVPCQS

The first experiment concerns the target Cathepsin D (Homo sapiens, UniProt P07339). Put plainly: Assay 3: cathepsin D inhibition activity (non-cellular assay, chromogenic substrate). Conditions: 4 µM test compound; inhibition of initial rate relative to control; cathepsin D from human placental tissue. The arrangement: Frozen human placental tissue was thawed and homogenized; from tissue; host or cells: human placenta. Type of experiment: biochemical. The procedure:
A third non-cellular assay for determining in vitro aspartyl protease inhibitory activity is generally described in Jupp, R.A. et al., (1990) Biochem. J., 265:871-878 and Rao et al., J. Med. Chem. (1993), in press. The assay is carried out by incubating a test compound with a suitable aspartyl protease, such as cathepsin D, in the presence of a chromogenic substrate. The inhibition constant, Ki, value may then be determined by quantifying the competitive inhibition of the hydrolysis of the chromogenic substrate. A variety of chromogenic substrates that are useful for assaying aspartyl protease activity are discussed in Dunn, et al., (1986) Biochem. J., 237:899-906. A preferred chromogenic substrate for a cathepsin D assay is disclosed in Scarborough, P.E. et al., Protein Science, (1993), 2:264-276.
Concentrations of substrate solutions and cleavage products may be verified using amino acid analysis. The enzyme preparations may be titrated with a tightly binding inhibitor to quantitate the active concentration of the enzyme. Enzyme concentrations are typically in the range of from 1-6 nM. Stock solutions of the test compound are prepared at concentrations ranging from 1.0 to 5.0 mg/mL, and then 50-100 µL portions of these stock solutions may be further diluted to a concentration in the range of 5 to 300 µM for rate determinations.
[…] Then, the test compounds are assayed over a concentration range of, for example, 5 to 300 µM for rate determinations.
A decrease in absorbance in the range of 284-324 nm may be monitored using a spectrophotometer. Absorbance readings are typically taken at various timepoints. The initial velocities are then plotted versus the initial substrate concentration. […] Estimates of Ki may then be determined using the Dixon construction. Dixon, M., (1953) Biochem J., 55:170-171.
If the ratio of the total active enzyme concentration to the estimated Ki value ([E]t/Ki) is less than 0.2, then the precise Ki value may be computed by using a non-linear curve fitting program based on the equation: v= Vmax [S]/[S] + Km (1 + [I]/Ki ) [formula] where v is the initial rate, [S] is the initial substrate concentration, [I] is the inhibitor concentration and Km and Ki are defined above. […] P.J.F., (1972) Biochem J., 127:321-333. This Assay is exemplfied in Assay 3.
The homogenate was centrifuged at 10,000 rpm for 30 minutes in a Sorvall GSA rotor. The supernatant was adjusted to pH 3.7 using 5.7N HCl and then sodium acetate was added to a concentration of 0.1M. The resultant mixture was incubated for 30 minutes at 0°C, resulting in the formation of a precipitate. This precipitate was removed by centrifugation (30 minutes, 10,000 rpm). The acidic supernatent was applied to a chromatography column (pepstatinyl agarose equilibrated with 0.1M sodium acetate, pH 3.5, 0.1% Brij 35, and 1M NaCl), washed until the OD₂₈₀ of the effluent returned to baseline, and then eluted with 50mM Tris-HCl, pH 8.6, 0.1% Brij 35, and 1M NaCl. The eluent was dialyzed against 10mM sodium phosphate, pH 7.0, 0.1% Brij 35, and 0.1M NaCl, and then applied to a 1 mL DEAE-Sephacel column equilibrated with the same buffer. Cathepsin D was recovered in the breakthrough fraction.
The enzyme mixture (125 µL buffer (0.1M sodium formate at pH 3.7), 1 µL of a 1mM solution of test compound, 4 µL of DMSO, enzyme and water to provide a total volume of 230 µL) was vortexed and prewarmed for four minutes before the addition of the chromogenic substrate. After warming, the enzyme mixture was added to 20 µL of a […] dilution of substrate solution. A control reaction mixture was similarly prepared without the addition of the test compound. The percent of inhibition of the initial rate of reaction in the presence of a particular concentration of test compound (i.e. 4 µM) may be determined for the test compound by monitoring the reaction mixture in parallel to the control reaction. […]
Turning to “[1S-(1R*,4R*,5S*)]-N-(1-(2-Amino-2-oxoethyl)-2-oxo-3-aza-4-phenylmethyl-5-hydroxy-6-(2-(1-t-butylamino-1- oxomethyl)phenyl)hexyl)-2-(6,7,8,9-tetrahydronaphthyl) carboxamide [Example 11]”, the “% inhibition at 4µ M” value is on record as 32%.

The same experiment, now with this note: 4 µM test compound; inhibition of initial rate relative to control; cathepsin D from human placental tissue; read-out: % inhibition at 4µ M.
For the compound `CC(C)(C)NC(=O)c1ccccc1C[C@@H](O)[C@H](Cc1ccccc1)NC(=O)[C@H](Cc1c[nH]cn1)NC(=O)[C@H](Cc1cccc2ccccc12)NC(=O)OC(C)(C)C` [Example 27, [2R-(2R*,3S*,6S*,9S*)]-N-t-Butyl-2-[2-hydroxy-3-phenylmethyl-4,7-diaza-5,8-dioxo-6-(imidazol-4-ylmethyl)-9-N(t-butoxycarbonyl)amino-10-naphth-1-yl]decyl benzamide], the inhibition at 4 µM was found to be 40%.

Turning to `CC(C)(C)NC(=O)c1ccccc1C[C@@H](O)[C@H](Cc1ccccc1)NC(=O)[C@H](Cc1cnc[nH]1)NC(=O)[C@@H](Cc1cccc2ccccc12)NC(=O)OC(C)(C)C` [Example 28, [2R-(2R*,3S*,6S*,9R*)]-N-t-Butyl-2-[2-hydroxy-3-phenylmethyl-4,7-diaza-5,8-dioxo-6-(imidazol-4-ylmethyl)-9-N(t-butoxycarbonyl)amino-10-naphth-1-yl]decyl benzamide], the inhibition at 4 µM stood at 6%.

Consider `CC(C)(C)NC(=O)c1ccccc1C[C@@H](O)[C@H](Cc1ccccc1)NC(=O)[C@@H](CC(=O)O)NS(C)(=O)=O` [Example 31, [2R-(2R*,3S*,6R*)]-N-t-Butyl-2-[2-hydroxy-3-phenylmethyl-4-aza-5-oxo-6-N(methylsulfonyl)amino-7-carboxy]heptyl benzamide], for which the inhibition at 4 µM amounted to 43%.

Consider `CC(C)(C)NC(=O)c1ccccc1C[C@@H](O)[C@H](Cc1ccccc1)NC(=O)[C@H](CC(N)=O)NS(=O)(=O)CCc1cccc2ccccc12` [Example 32, [2R-(2R*,3S*,6S*)]-N-t-Butyl-2-[2-hydroxy-3-phenylmethyl-4-aza-5-oxo-6-N(naphth-1-ylethylsulfonyl)amino-7-carbamoyl]heptyl benzamide], for which the inhibition at 4 µM was found to be 12%.

The experiment is the same for the next values; noted with them: cathepsin D from human placental tissue, chromogenic substrate, pH 3.7, 37°C.
The compound `CC(C)(C)NC(=O)c1ccccc1CC(O)C(Cc1ccccc1)NC(=O)C(CC(N)=O)NC(=O)C(Cc1cccc2ccccc12)NC(=O)OC(C)(C)C` (stereo not drawn) [Example 26, [2R-(2R*,3S*,6S*,9S*)]-N-t-Butyl-2-[2-hydroxy-3-phenylmethyl-4,7-diaza-5,8-dioxo-6-(2-amino-2-oxoethyl)-9-N(t-butoxycarbonyl)amino-10-naphth-1-yl]decyl benzamide] gave an inhibition constant (Ki) of 2300 ± 410 nM.

Regarding `CC(C)C(NC(=O)OCc1ccccc1)C(=O)NC(Cc1ccccc1)C(O)C(O)C(Cc1ccccc1)NC(=O)C(NC(=O)OCc1ccccc1)C(C)C` [Example 33, 1,6-Diphenyl-2(S),5(S)-di[N-[2(S)-N(benzyloxycarbonyl)amino-3-methyl-butanoyl]amino]-3,4-dihydroxyhexane], affinity was put at a Ki of 23 ± 3 nM.

`CC(C)C(NC(=O)OCc1ccc2ccccc2n1)C(=O)NC(Cc1ccccc1)C(O)C(O)C(Cc1ccccc1)NC(=O)C(NC(=O)OCc1ccc2ccccc2n1)C(C)C` [Example 34, 1,6-Diphenyl-2(S),5(S)-di[N-[2(S)-N(quinolin-2-ylmethoxycarbonyl)amino-3-methylbutanoyl]amino]-3,4-dihydroxyhexane]: the inhibition constant (Ki) came out at 18 nM.

For `CC(C)C(NC(=O)OCc1ccccn1)C(=O)NC(Cc1ccccc1)C(O)C(O)C(Cc1ccccc1)NC(=O)C(NC(=O)OCc1ccccn1)C(C)C` [Example 35, 1,6-Diphenyl-2(S),5(S)-di[N-[2(S)-N(pyrid-2-ylmethoxycarbonyl)amino-3-methylbutanoyl]amino]-3,4-dihydroxyhexane], the affinity corresponds to a Ki of 86 nM.
